Laboratory results published in PubChem BioAssay AID1963445 (Molecular Pharmacology Branch, DTP, NCI, 2024).

System: MCF7 complex spheroid growth, % test/control
Assay: Anticancer human tumor MCF7 cell line growth inhibition [Asc];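 further: spheroids exposed to compounds for 7 days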;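 on viability, T/C: 100% = DMSO vehicle control wells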
Settings: for IC50: curve of first compound; for viability, T/C: stronger effect = lower value
Summary of the method: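 Tumor cells were grown as multicellular spheroids with stromal HUVEC and mesenchymal stem cells and treated singly or in combination. Concentrations fell in half-log steps from the clinical Cmax, or from 10 microM where none was known.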

[1] = second compound 0.0316 µM, first compound 0.00949 µM
[2] = second compound 0.0316 µM, first compound 0.03 µM
[3] = second compound 0.0316 µM, first compound 0.0949 µM
[4] = second compound 0.0316 µM, first compound 0.3 µM
[5] = second compound 0.0316 µM, first compound 0.949 µM
[6] = second compound 0.0316 µM, first compound 3 µM
[7] = second compound 0.1 µM, first compound 0.00949 µM
[8] = second compound 0.1 µM, first compound 0.03 µM
[9] = second compound 0.1 µM, first compound 0.0949 µM
[10] = second compound 0.1 µM, first compound 0.3 µM
[11] = second compound 0.1 µM, first compound 0.949 µM
[12] = second compound 0.1 µM, first compound 3 µM
[13] = second compound 0.316 µM, first compound 0.00949 µM
[14] = second compound 0.316 µM, first compound 0.03 µM
[15] = second compound 0.316 µM, first compound 0.0949 µM
[16] = second compound 0.316 µM, first compound 0.3 µM
[17] = second compound 0.316 µM, first compound 0.949 µM
[18] = second compound 0.316 µM, first compound 3 µM
[19] = second compound 1 µM, first compound 0.00949 µM
[20] = second compound 1 µM, first compound 0.03 µM
[21] = second compound 1 µM, first compound 0.0949 µM
[22] = second compound 1 µM, first compound 0.3 µM
[23] = second compound 1 µM, first compound 0.949 µM
[24] = second compound 1 µM, first compound 3 µM

Cc1nc(N2CCC3(CC2)COC(C)C3N)c(CO)nc1Sc1ccnc(N)c1Cl (stereo unspecified) + Cc1c(S(C)(=O)=O)c(-c2cc(F)cc(N3CCN(c4ccc(NS(=O)(=O)c5ccc(NC(CCN6CCC(C(=O)OCCCP(=O)(O)O)CC6)CSc6ccccc6)c(S(=O)(=O)C(F)(F)F)c5)cc4)CC3)c2)c(-c2ccc(Cl)cc2)n1C(C)C gave an IC50 (second compound 0.0316 µM) of 736 nM, an IC50 (second compound 0.1 µM) of 787 nM and an IC50 (second compound 0.316 µM) of 491 nM. For the same molecule, the IC50 (second compound 1 µM) was 534 nM, the IC50 (second compound 3.16 µM) was 668 nM and the IC50 (second compound 10 µM) was 789 nM. For the same molecule, the viability, T/C [1] was 91.3%, the viability, T/C [2] was 92.1% and the viability, T/C [3] was 90%. The viability, T/C [4] was 88.8%, the viability, T/C [5] was 39.1% and the viability, T/C [6] was 14.7%. For the same molecule, the viability, T/C [7] was 90.6%, the viability, T/C [8] was 79.7% and the viability, T/C [9] was 73.7%. The viability, T/C [10] was 80%, the viability, T/C [11] was 44.2% and the viability, T/C [12] was 14.9%. It also gave a viability, T/C [13] of 98.3%, a viability, T/C [14] of 84.2% and a viability, T/C [15] of 75.2%. It also gave a viability, T/C [16] of 72.8%, a viability, T/C [17] of 19.7% and a viability, T/C [18] of 15.5%. The viability, T/C [19] was 80.5%, the viability, T/C [20] was 84.6% and the viability, T/C [21] was 85.7%. The viability, T/C [22] was 81.2%, the viability, T/C [23] was 18.9% and the viability, T/C [24] was 15.3%. It also gave a viability, T/C (second compound 3.16 µM, first compound 0.00949 µM) of 98.3%, a viability, T/C (second compound 3.16 µM, first compound 0.03 µM) of 88.4% and a viability, T/C (second compound 3.16 µM, first compound 0.0949 µM) of 89.5%. It also gave a viability, T/C (second compound 3.16 µM, first compound 0.3 µM) of 80.6%, a viability, T/C (second compound 3.16 µM, first compound 0.949 µM) of 36.6% and a viability, T/C (second compound 3.16 µM, first compound 3 µM) of 20.5%. It also gave a viability, T/C (second compound 10 µM, first compound 0.00949 µM) of 247%, a viability, T/C (second compound 10 µM, first compound 0.03 µM) of 221% and a viability, T/C (second compound 10 µM, first compound 0.0949 µM) of 202%. It also gave a viability, T/C (second compound 10 µM, first compound 0.3 µM) of 176%, a viability, T/C (second compound 10 µM, first compound 0.949 µM) of 26% and a viability, T/C (second compound 10 µM, first compound 3 µM) of 26%.

With CCN1C(C(=O)NC23CCC(C(=O)O)(CC2)CC3)C(c2cccc(Cl)c2F)C2(C(=O)Nc3cc(Cl)ccc32)C12CCCCC2 (stereo unspecified) + CNC(C)C(=O)NC1CN(S(=O)(=O)c2cccc(S(=O)(=O)N3CCC4CCC(C(=O)NC(c5ccccc5)c5ccccc5)N4C(=O)C(NC(=O)C(C)NC)C3)c2)CCC2CCC(C(=O)NC(c3ccccc3)c3ccccc3)N2C1=O the IC50 (second compound 0.00316 µM) was under 9.49 nM, the IC50 (second compound 0.01 µM) was under 9.49 nM and the IC50 (second compound 0.0316 µM) was under 9.49 nM. It also gave an IC50 (second compound 0.1 µM) of under 9.49 nM, an IC50 (second compound 0.316 µM) of under 9.49 nM and an IC50 (second compound 1 µM) of under 9.49 nM. For the same molecule, the viability, T/C (second compound 0.00316 µM, first compound 0.00949 µM) was 40.9%, the viability, T/C (second compound 0.00316 µM, first compound 0.03 µM) was 14.3% and the viability, T/C (second compound 0.00316 µM, first compound 0.0949 µM) was 10.8%. The viability, T/C (second compound 0.00316 µM, first compound 0.3 µM) was 11%, the viability, T/C (second compound 0.00316 µM, first compound 0.949 µM) was 8.86% and the viability, T/C (second compound 0.00316 µM, first compound 3 µM) was 5.04%. The viability, T/C (second compound 0.01 µM, first compound 0.00949 µM) was 11.4%, the viability, T/C (second compound 0.01 µM, first compound 0.03 µM) was 8.24% and the viability, T/C (second compound 0.01 µM, first compound 0.0949 µM) was 8.54%. The viability, T/C (second compound 0.01 µM, first compound 0.3 µM) was 5.55%, the viability, T/C (second compound 0.01 µM, first compound 0.949 µM) was 5.82% and the viability, T/C (second compound 0.01 µM, first compound 3 µM) was 5.04%. For the same molecule, the viability, T/C [1] was 11.9%, the viability, T/C [2] was 8.85% and the viability, T/C [3] was 5.62%. The viability, T/C [4] was 5.69%, the viability, T/C [5] was 4.2% and the viability, T/C [6] was 5.94%. For the same molecule, the viability, T/C [7] was 12%, the viability, T/C [8] was 10.7% and the viability, T/C [9] was 6.73%. The viability, T/C [10] was 6.23%, the viability, T/C [11] was 4.67% and the viability, T/C [12] was 5.57%. It also gave a viability, T/C [13] of 12.5%, a viability, T/C [14] of 10.7% and a viability, T/C [15] of 7.04%. The viability, T/C [16] was 5.56%, the viability, T/C [17] was 5.97% and the viability, T/C [18] was 6.29%. It also gave a viability, T/C [19] of 11.2%, a viability, T/C [20] of 12.5% and a viability, T/C [21] of 9.54%. It also gave a viability, T/C [22] of 5.59%, a viability, T/C [23] of 4.74% and a viability, T/C [24] of 6.71%.

C#Cc1c(F)ccc2cc(O)cc(-c3ncc4c(N5CC6CCC(C5)N6)nc(OCC56CCCN5CC(F)C6)nc4c3F)c12 (stereo unspecified) + CCN1C(C(=O)NC23CCC(C(=O)O)(CC2)CC3)C(c2cccc(Cl)c2F)C2(C(=O)Nc3cc(Cl)ccc32)C12CCCCC2 gave an IC50 (second compound 0.00949 µM) of over 10000 nM, an IC50 (second compound 0.03 µM) of over 10000 nM and an IC50 (second compound 0.0949 µM) of 59.8 nM. For the same molecule, the IC50 (second compound 0.3 µM) was under 31.6 nM, the IC50 (second compound 0.949 µM) was under 31.6 nM and the IC50 (second compound 3 µM) was under 31.6 nM. The viability, T/C (second compound 0.00949 µM, first compound 0.0316 µM) was 92.6%, the viability, T/C (second compound 0.00949 µM, first compound 0.1 µM) was 114% and the viability, T/C (second compound 0.00949 µM, first compound 0.316 µM) was 111%. The viability, T/C (second compound 0.00949 µM, first compound 1 µM) was 102%, the viability, T/C (second compound 0.00949 µM, first compound 3.16 µM) was 107% and the viability, T/C (second compound 0.00949 µM, first compound 10 µM) was 76.4%. For the same molecule, the viability, T/C (second compound 0.03 µM, first compound 0.0316 µM) was 100%, the viability, T/C (second compound 0.03 µM, first compound 0.1 µM) was 81.7% and the viability, T/C (second compound 0.03 µM, first compound 0.316 µM) was 91.8%. The viability, T/C (second compound 0.03 µM, first compound 1 µM) was 81.2%, the viability, T/C (second compound 0.03 µM, first compound 3.16 µM) was 102% and the viability, T/C (second compound 0.03 µM, first compound 10 µM) was 70.7%. For the same molecule, the viability, T/C (second compound 0.0949 µM, first compound 0.0316 µM) was 47.6%, the viability, T/C (second compound 0.0949 µM, first compound 0.1 µM) was 60.5% and the viability, T/C (second compound 0.0949 µM, first compound 0.316 µM) was 36.4%. For the same molecule, the viability, T/C (second compound 0.0949 µM, first compound 1 µM) was 42.2%, the viability, T/C (second compound 0.0949 µM, first compound 3.16 µM) was 47.8% and the viability, T/C (second compound 0.0949 µM, first compound 10 µM) was 32.9%. For the same molecule, the viability, T/C (second compound 0.3 µM, first compound 0.0316 µM) was 27.1%, the viability, T/C (second compound 0.3 µM, first compound 0.1 µM) was 24.6% and the viability, T/C (second compound 0.3 µM, first compound 0.316 µM) was 28.6%. It also gave a viability, T/C (second compound 0.3 µM, first compound 1 µM) of 27.4%, a viability, T/C (second compound 0.3 µM, first compound 3.16 µM) of 23.5% and a viability, T/C (second compound 0.3 µM, first compound 10 µM) of 19.9%. For the same molecule, the viability, T/C (second compound 0.949 µM, first compound 0.0316 µM) was 17.1%, the viability, T/C (second compound 0.949 µM, first compound 0.1 µM) was 19.2% and the viability, T/C (second compound 0.949 µM, first compound 0.316 µM) was 14.1%. For the same molecule, the viability, T/C (second compound 0.949 µM, first compound 1 µM) was 17.8%, the viability, T/C (second compound 0.949 µM, first compound 3.16 µM) was 16.3% and the viability, T/C (second compound 0.949 µM, first compound 10 µM) was 10.8%. It also gave a viability, T/C (second compound 3 µM, first compound 0.0316 µM) of 12.8%, a viability, T/C (second compound 3 µM, first compound 0.1 µM) of 11.4% and a viability, T/C (second compound 3 µM, first compound 0.316 µM) of 11.5%. For the same molecule, the viability, T/C (second compound 3 µM, first compound 1 µM) was 10.2%, the viability, T/C (second compound 3 µM, first compound 3.16 µM) was 14.1% and the viability, T/C (second compound 3 µM, first compound 10 µM) was 7.87%.
